We go through one molecule from patent US20120225852A1, “USE OF STEROID COMPOUNDS” (priority 2009, published 2012).

The structures appear in SMILES notation.

The subject of experiment [1] is allergic airway inflammation. As to the kind of experiment: Mouse model of allergic asthma (OVA/alum sensitization, aerosolized OVA). The format is in vivo, BALB/c mice. The protocol:
BALB/c mice were sensitized with 0.01 mg chicken ovalbumin (OVA) in 0.2 ml alum intraperitoneally on days 0 and 12, and were exposed to aerosolized OVA (5% for 20 min) on days 18-20.

In another experiment the test system is EAE. As to the kind of experiment: EAE after cessation of 15 days of treatment, 45 additional days of monitoring. The format is in vivo, C57BL/6 mice. The source says: The mice continued to be monitored daily for clinical signs of EAE for 45 additional days thereafter.
Experiment [2] has as its system response to OVA in EAE-induced mice. As to the kind of experiment: EAE mice treated for 15 days, then immunized with OVA/CFA. It counts as in vivo, C57BL/6 mice. On the procedure:
Treatment stopped and mice were then injected with OVA/CFA (Complete Freund's Adjuvant).
Instead, the response to a new antigen that the mice are exposed to is enhanced.

Take `C[C@]12CC[C@H](O)CC1=CC[C@@H]1[C@@H]2CC[C@]2(C)C(=O)CC[C@@H]12` [DHEA, dehydroepiandrosterone]: in experiment [1] (2 mg/mouse), the “levels of OVA-specific IgE” value is “significantly decreased”, the “levels of OVA-specific IgG1” value is recorded as “significantly decreased”, the “levels of OVA-specific IgG2a” value is on record as “significantly decreased” and the “numbers of CD3+CD4+ CD25+ Foxp3+ T cells (T regulatory cells)” value is on record as “substantially increased”. For the same molecule, the “numbers of suppressive CD11c+PDCA-1+ plasmacytoid dendritic cells (pDCs)” value in experiment [1] (2 mg/mouse) was “substantially increased”. Besides, the “numbers of eosinophils in the bronchoalveolar lavage (BAL)” value in experiment [1] (2 mg/mouse on days 0,1,2,12,13,14,18,19,20, vs PBS-treated mice, FIG. 14a) is “significantly decreased”. For the same molecule, the “numbers of lymphomononuclear cells in the bronchoalveolar lavage (BAL)” value in experiment [1] (2 mg/mouse, vs PBS-treated mice, FIG. 14a) is “significantly decreased”. Moreover, the lung leukocytic infiltration entry in experiment [1] (2 mg/mouse, FIG. 14b) was “significantly decreased”. Moreover, in experiment [1] (draining lymph nodes, FIG. 14c), the “OVA-specific T cell proliferation” value is recorded as “significantly decreased”. Besides, the “allergic airway inflammation, Th2 responses and B cell responses” value in experiment [1] (overall conclusion of Example 3) is listed as “suppress”. The “protection from EAE development after cessation of treatment” value in the experiment with EAE (treated 15 days from around day 13, monitored 45 additional days, FIGS. 34 and 35) is on record as “remained protected”. Further, in the experiment on EAE (treated 15 days, monitored 45 additional days, vs control mice), the “disease score after cessation of treatment” value is “remained unchanged”. The “production of IFN-γ” value in experiment [2] (after OVA/CFA immunization) is “increased”. Besides, the “T cell response to OVA ex vivo (3H-Thymidine incorporation)” value in experiment [2] (after OVA/CFA immunization, FIG. 40) was “substantially increased”. Also, the “EAE phenotype after end of treatment and OVA/CFA injection” value in experiment [2] (in comparison to control mice) is “stable phenotype without any deterioration”. The “protection from EAE” value in experiment [2] (treated 15 days from shortly after disease onset, then OVA/CFA) is listed as “clearly protected”.
